Values after ≈ are worked out from the molar mass of the structure shown. Starred links: 1 amine or outer side, 2 acyl side, 3 side chain; linkers in the order of their positions; H or OH if unused. Non-standard residues stand in square brackets, D forms with d. Residues, ends and D or L forms follow the SMILES beside them. ξ: configuration not given here. *: point of attachment. Biotin = O=C1N[C@H]2[C@H](CS[C@H]2CCCCC(=O)*)N1; Pro(3ξ,4ξ-(CH2)4) = O=C(O)[C@H]1NCC2CCCCC21; Oic = O=C(O)[C@@H]1C[C@@H]2CCCC[C@@H]2N1; Phe(4-F) = N[C@@H](Cc1ccc(F)cc1)C(=O)O; Ethylenediamine = C(CN[*:2])N[*:1]; Tic = O=C(O)[C@@H]1Cc2ccccc2CN1; NH(CH2)3NH2 = NCCCN*; GABA = NCCCC(=O)O
Key:
[1] = system: Staphylococcus aureus; test: Antibacterial activity against methicillin/gentamicin/tetracycline resistant Staphylococcus aureus ATCC 33592; assay type: functional
[2] = system: Mycobacterium; test: Antibacterial activity against Mycobacterium ranae ATCC 110; assay type: functional
[3] = system: Salmonella typhimurium; test: Antibacterial activity against Salmonella Typhimurium ATCC 13311; assay type: functional, Salmonella enterica subsp. enterica serovar Typhimurium; conditions: Salmonella enterica
[4] = system: Bacillus subtilis; test: Antibacterial activity against Bacillus subtilis ATCC 43223; assay type: functional

CC(=O)NCC(=O)N[C@@H](Cc1ccccc1)C(=O)N1Cc2ccccc2C[C@H]1C(=O)N1[C@H](C(=O)NCC(=O)N[C@@H](CCCCN)C(=O)N2Cc3ccccc3C[C@H]2C(=O)N2[C@H](C(=O)NCC(=O)N[C@@H](Cc3ccccc3)C(=O)N3Cc4ccccc4C[C@H]3C(=O)N3[C@H](C(=O)NCC(=O)N[C@@H](CCCCN)C(=O)N4Cc5ccccc5C[C@H]4C(=O)N[C@@H](CCCCN)C(=O)N[C@@H](CCCCN)C(=O)N[C@@H](CCCCN)C(=O)N[C@@H](CCCCN)C(=O)NCCN)C[C@@H]4CCCC[C@@H]43)C[C@@H]3CCCC[C@@H]32)C[C@@H]2CCCC[C@@H]21 (Ac-GF[Tic][Oic]GK[Tic][Oic]GF[Tic][Oic]GK[Tic]KKKK-Ethylenediamine)
MIC [1]: 3 µM (≈ 7.45 µg/mL) | MIC [2]: 10 µM (≈ 24.8 µg/mL) | MIC [3]: 10 µM (≈ 24.8 µg/mL) | MIC [4]: 1 µM (≈ 2.48 µg/mL)

CC(=O)NCC(=O)N[C@@H](Cc1ccc(F)cc1)C(=O)N1Cc2ccccc2C[C@H]1C(=O)N1CC2CCCCC2[C@H]1C(=O)NCC(=O)N[C@@H](CCCCN)C(=O)N1Cc2ccccc2C[C@H]1C(=O)N1CC2CCCCC2[C@H]1C(=O)NCC(=O)N[C@@H](Cc1ccc(F)cc1)C(=O)N1Cc2ccccc2C[C@H]1C(=O)N1CC2CCCCC2[C@H]1C(=O)NCC(=O)N[C@@H](CCCCN)C(=O)N1Cc2ccccc2C[C@H]1C(=O)N[C@@H](CCCCN)C(=O)N[C@@H](CCCCN)C(=O)N[C@@H](CCCCN)C(=O)N[C@@H](CCCCN)C(N)=O (stereo not given in full) (Ac-G[Phe(4-F)][Tic][Pro(3ξ,4ξ-(CH2)4)]GK[Tic][Pro(3ξ,4ξ-(CH2)4)]G[Phe(4-F)][Tic][Pro(3ξ,4ξ-(CH2)4)]GK[Tic]KKKK-NH2)
MIC [1]: 10 µM (≈ 24.8 µg/mL) | MIC [2]: 3 µM (≈ 7.43 µg/mL) | MIC [3]: 30 µM (≈ 74.3 µg/mL) | MIC [4]: 0.3 µM (≈ 0.743 µg/mL)

NCCCC[C@H](NC(=O)[C@H](CCCCN)NC(=O)[C@H](CCCCN)NC(=O)[C@H](CCCCN)NC(=O)[C@@H]1Cc2ccccc2CN1C(=O)[C@H](CCCCN)NC(=O)CNC(=O)[C@@H]1C[C@@H]2CCCC[C@@H]2N1C(=O)[C@@H]1Cc2ccccc2CN1C(=O)[C@H](Cc1ccccc1)NC(=O)CNC(=O)[C@@H]1C[C@@H]2CCCC[C@@H]2N1C(=O)[C@@H]1Cc2ccccc2CN1C(=O)[C@H](CCCCN)NC(=O)CNC(=O)[C@@H]1C[C@@H]2CCCC[C@@H]2N1C(=O)[C@@H]1Cc2ccccc2CN1C(=O)[C@H](Cc1ccccc1)NC(=O)CNC(=O)CCCC[C@@H]1SC[C@@H]2NC(=O)N[C@@H]21)C(N)=O (Biotin-GF[Tic][Oic]GK[Tic][Oic]GF[Tic][Oic]GK[Tic]KKKK-NH2)
MIC [1]: 3 µM (≈ 7.88 µg/mL) | MIC [2]: 10 µM (≈ 26.3 µg/mL) | MIC [3]: 30 µM (≈ 78.8 µg/mL) | MIC [4]: 1 µM (≈ 2.63 µg/mL)

CC(=O)NCC(=O)N[C@@H](Cc1ccccc1)C(=O)N1Cc2ccccc2C[C@H]1C(=O)N1[C@H](C(=O)NCC(=O)N[C@@H](CCCCN)C(=O)N2Cc3ccccc3C[C@H]2C(=O)N2[C@H](C(=O)NCC(=O)N[C@@H](Cc3ccccc3)C(=O)N3Cc4ccccc4C[C@H]3C(=O)N3[C@H](C(=O)NCC(=O)N[C@@H](CCCCN)C(=O)N4Cc5ccccc5C[C@H]4C(=O)N[C@@H](CCCCN)C(=O)N[C@@H](CCCCN)C(=O)N[C@@H](CCCCN)C(=O)N[C@@H](CCCCN)C(=O)NCCCN)C[C@@H]4CCCC[C@@H]43)C[C@@H]3CCCC[C@@H]32)C[C@@H]2CCCC[C@@H]21 (Ac-GF[Tic][Oic]GK[Tic][Oic]GF[Tic][Oic]GK[Tic]KKKK-{NH(CH2)3NH2})
MIC [1]: 10 µM (≈ 25 µg/mL) | MIC [2]: 10 µM (≈ 25 µg/mL) | MIC [3]: 30 µM (≈ 74.9 µg/mL) | MIC [4]: 3 µM (≈ 7.49 µg/mL)

NCCCC[C@H](NC(=O)[C@H](CCCCN)NC(=O)[C@H](CCCCN)NC(=O)[C@H](CCCCN)NC(=O)[C@@H]1Cc2ccccc2CN1C(=O)[C@H](CCCCN)NC(=O)CNC(=O)[C@@H]1C[C@@H]2CCCC[C@@H]2N1C(=O)[C@@H]1Cc2ccccc2CN1C(=O)[C@H](Cc1ccccc1)NC(=O)CNC(=O)[C@@H]1C[C@@H]2CCCC[C@@H]2N1C(=O)[C@@H]1Cc2ccccc2CN1C(=O)[C@H](CCCCN)NC(=O)CNC(=O)[C@@H]1C[C@@H]2CCCC[C@@H]2N1C(=O)[C@@H]1Cc2ccccc2CN1C(=O)[C@H](Cc1ccccc1)NC(=O)CN)C(N)=O (H-GF[Tic][Oic]GK[Tic][Oic]GF[Tic][Oic]GK[Tic]KKKK-NH2)
MIC [1]: 10 µM (≈ 24 µg/mL) | MIC [2]: 10 µM (≈ 24 µg/mL) | MIC [3]: 3 µM (≈ 7.2 µg/mL) | MIC [4]: 1 µM (≈ 2.4 µg/mL)

CC(=O)NCC(=O)N[C@@H](Cc1ccccc1)C(=O)N1Cc2ccccc2C[C@H]1C(=O)N1CC2CCCCC2[C@H]1C(=O)NCC(=O)N[C@@H](CCCCN)C(=O)N1Cc2ccccc2C[C@H]1C(=O)N1CC2CCCCC2[C@H]1C(=O)NCC(=O)N[C@@H](Cc1ccccc1)C(=O)N1Cc2ccccc2C[C@H]1C(=O)N1CC2CCCCC2[C@H]1C(=O)NCC(=O)N[C@@H](CCCCN)C(=O)N1Cc2ccccc2C[C@H]1C(=O)N[C@@H](CCCCN)C(=O)N[C@@H](CCCCN)C(=O)N[C@@H](CCCCN)C(=O)N[C@@H](CCCCN)C(=O)N[C@@H](CCCCN)C(N)=O (stereo not given in full) (Ac-GF[Tic][Pro(3ξ,4ξ-(CH2)4)]GK[Tic][Pro(3ξ,4ξ-(CH2)4)]GF[Tic][Pro(3ξ,4ξ-(CH2)4)]GK[Tic]KKKKK-NH2)
MIC [1]: 3 µM (≈ 7.71 µg/mL) | MIC [2]: 3 µM (≈ 7.71 µg/mL) | MIC [3]: 10 µM (≈ 25.7 µg/mL) | MIC [4]: 1 µM (≈ 2.57 µg/mL)

CC(=O)NCC(=O)N[C@@H](Cc1ccccc1)C(=O)N[C@@H](Cc1ccccc1)C(=O)N1CC2CCCCC2[C@H]1C(=O)NCC(=O)N[C@@H](CCCCN)C(=O)N[C@@H](Cc1ccccc1)C(=O)N1CC2CCCCC2[C@H]1C(=O)NCC(=O)N[C@@H](Cc1ccccc1)C(=O)N[C@@H](Cc1ccccc1)C(=O)N1CC2CCCCC2[C@H]1C(=O)NCC(=O)N[C@@H](CCCCN)C(=O)N[C@@H](Cc1ccccc1)C(=O)N[C@@H](CCCCN)C(=O)N[C@@H](CCCCN)C(=O)N[C@@H](CCCCN)C(=O)N[C@@H](CCCCN)C(N)=O (stereo not given in full) (Ac-GFF[Pro(3ξ,4ξ-(CH2)4)]GKF[Pro(3ξ,4ξ-(CH2)4)]GFF[Pro(3ξ,4ξ-(CH2)4)]GKFKKKK-NH2)
MIC [1]: 10 µM (≈ 23.9 µg/mL) | MIC [2]: 10 µM (≈ 23.9 µg/mL) | MIC [3]: 10 µM (≈ 23.9 µg/mL) | MIC [4]: 3 µM (≈ 7.18 µg/mL)

CC(=O)NCC(=O)N[C@@H](Cc1ccccc1)C(=O)NCC(=O)N1CC2CCCCC2[C@H]1C(=O)NCC(=O)N[C@@H](CCCCN)C(=O)NCC(=O)N1CC2CCCCC2[C@H]1C(=O)NCC(=O)N[C@@H](Cc1ccccc1)C(=O)NCC(=O)N1CC2CCCCC2[C@H]1C(=O)NCC(=O)N[C@@H](CCCCN)C(=O)NCC(=O)N[C@@H](CCCCN)C(=O)N[C@@H](CCCCN)C(=O)N[C@@H](CCCCN)C(=O)N[C@@H](CCCCN)C(N)=O (stereo not given in full) (Ac-GFG[Pro(3ξ,4ξ-(CH2)4)]GKG[Pro(3ξ,4ξ-(CH2)4)]GFG[Pro(3ξ,4ξ-(CH2)4)]GKGKKKK-NH2)
MIC [1]: 3 µM (≈ 6.1 µg/mL) | MIC [2]: 100 µM (≈ 203 µg/mL) | MIC [4]: 30 µM (≈ 61 µg/mL)

CC(=O)NCCCC(=O)N[C@@H](Cc1ccccc1)C(=O)N1Cc2ccccc2C[C@H]1C(=O)N1[C@H](C(=O)NCCCC(=O)N[C@@H](CCCCN)C(=O)N2Cc3ccccc3C[C@H]2C(=O)N2[C@H](C(=O)NCCCC(=O)N[C@@H](Cc3ccccc3)C(=O)N3Cc4ccccc4C[C@H]3C(=O)N3[C@H](C(=O)NCCCC(=O)N[C@@H](CCCCN)C(=O)N4Cc5ccccc5C[C@H]4C(=O)N[C@@H](CCCCN)C(=O)N[C@@H](CCCCN)C(=O)N[C@@H](CCCCN)C(=O)N[C@@H](CCCCN)C(=O)N[C@@H](CCCCN)C(N)=O)C[C@@H]4CCCC[C@@H]43)C[C@@H]3CCCC[C@@H]32)C[C@@H]2CCCC[C@@H]21 (Ac-[GABA]F[Tic][Oic][GABA]K[Tic][Oic][GABA]F[Tic][Oic][GABA]K[Tic]KKKKK-NH2)
MIC [1]: 30 µM (≈ 80.4 µg/mL) | MIC [2]: 3 µM (≈ 8.04 µg/mL) | MIC [3]: 10 µM (≈ 26.8 µg/mL) | MIC [4]: 1 µM (≈ 2.68 µg/mL)

— ChEMBL document CHEMBL1145395, “De novo design of selective antibiotic peptides by incorporation of unnatural amino acids” (J Med Chem, 2007)
